Source: a melting point compilation (Tetko et al.; mined from patent text by program, amines drawn as free bases though some values may be those of a salt)

melting point | SMILES
137 to 138 °C | Cc1ccccc1C(=O)Nc1ccc(Cl)c(C(=O)OC(C)C)c1
212 °C | COc1cc2c(cc1OC)CN(CCc1ccc(NC(=O)c3cccc4c(=O)c5cccc(F)c5[nH]c34)cc1)CC2
208 to 210 °C | COc1cc2ncnc(N3CCN(C(=S)Nc4ccccn4)CC3)c2cc1OC
179 to 181 °C | CCOc1cn(C2CC(O)C(CO)O2)c(=O)[nH]c1=O (stereo not given)
176 °C | CCCc1nncn1-c1ccc(O)cc1
217 to 218 °C | CC1CC(C)CN(Cc2ccc(C=CC(=O)Nc3ccc(-c4ccc(Cl)cc4)cc3)cc2)C1 (stereo not given)
102 to 104 °C | Cc1cc(CCCCCOc2ccc(C3=NCCO3)cc2)on1
126 to 127 °C | Cc1ccccc1-n1nccc1-c1nn(-c2cccc(C(F)(F)F)c2)ccc1=O
245 to 246 °C | COC(=O)c1cc(=O)n(-c2c(Cl)cc(C(F)(F)F)cc2Cl)[nH]1
59.5 to 60 °C | CC(=O)c1c(N(C)C)nn2ccccc12
218 to 220 °C | CC(CC(=O)c1ccccc1)C(=O)N1CCC[C@H]1C(=O)O (stereo not given in full)
270 °C | CC(=O)OCC(OC(C)=O)c1nc2c(C(F)(F)F)cccc2c(O)c1C(=O)Nc1nccs1 (stereo not given)
129 °C | COc1cc(Cl)cnc1OCC#Cc1cc(Cl)ccn1
99 to 101 °C | Cc1noc(C)c1S(=O)(=O)N(C)c1ccc(Cl)cc1[N+](=O)[O-]
108 to 109 °C | CC(C)c1nc(CC(=O)O)c(-c2ccco2)o1
129 to 130 °C | O=C1C[C@@H]2[C@@H](/C=C/C(=O)[C@@H]3OCc4ccccc4O3)[C@H](OC(=O)c3ccccc3)C[C@@H]2O1
125 to 126 °C | COC(=O)c1sc2ccc(Br)cc2c1-c1ccccc1
145 to 147 °C | CN(Cc1ccccc1)c1sc(-c2ccncc2)c2c1C(=O)CC2

melting point | SMILES
60.3 to 62.2 °C | C[C@H]1CCCC(C)(C)[C@@H]1[C@H](O)c1ccc(OC(F)(F)F)c(F)c1
101 to 104 °C | CCCCNC(=S)C(C)Oc1ccc2oc3cc(Cl)ccc3c2c1 (stereo not given)
82 to 83 °C | CCCCC1(CCCC)CCc2c(O)cccc2C1O (stereo not given)
55 °C | O=S(=O)(Cl)c1c(Cl)sc(Cl)c1Cl
134 to 137 °C | CC(C)(O)C(=O)Nc1ccc2oc3ccccc3c2c1
92 to 98 °C | OCC1OC(n2cnc3c(NCC4(c5cccc(Cl)c5)CCC4)ncnc32)C(O)C1O (stereo not given)
> 245 °C | O=c1cc(S)sc2ccoc12
184 to 204 °C | COc1ccc(-c2ccncc2)cc1-c1cccc(Oc2ccccc2)c1
240 to 242 °C | CS(=O)c1ccc(-c2nc3ncccc3[nH]2)cc1 (stereo not given)
115 to 116 °C | C[Si](C)(C)CCCOc1ccc(O)c(C(=O)O)c1
49 to 51 °C | COc1cc(N)c(C)c(OC)c1OC
88 to 90 °C | Cc1ccc(CNc2ccc(Cl)cc2Cl)c(C)c1
40 to 43 °C | NCc1cccc(N)c1
235 to 238 °C | CCc1oc2ccccc2c1C(=O)NCc1ccc2c(Br)c(OCc3nnn[nH]3)ccc2c1
240 °C | O=c1[nH]cc(C(c2ccccc2)c2ccccc2)cc1C(c1ccccc1)c1ccccc1
59.2 to 61.2 °C | Cc1ncsc1CNc1ccc(-n2nc(C(F)(F)F)cc2C2CC2)cc1
96 to 97.5 °C | COC(=O)CSc1cc(=O)n(C)c(=O)n1C
214 °C | CCCCCCCCNC(=O)C1CC1c1ccc(N2CC(C(=O)O)CC2=O)cc1 (stereo not given)

Second part, the compound before the results:

SMILES | melting point
Nc1sc2c(c1C(=O)c1ccco1)CCC2 | 149 to 153 °C
Cc1nccn1CCCCC(=O)NCc1ccc(Cl)cc1 | 72 to 75 °C
CC12Cc3cnn(-c4ccc(F)cc4)c3C=C1CCC1C2=CCCC1c1ccccn1 (stereo not given) | 154 to 156 °C
O=c1[nH]nc2n1CCc1ccccc1C2 | 253 to 261 °C
CC(=O)c1cccc(NC(=O)c2cc(C(=O)Nc3cccc(C(C)=O)c3)cc(C(=O)Nc3cccc(C(C)=O)c3)c2)c1 | 270 °C
COc1cccc(Cl)c1CBr | 44 to 47 °C
CC(C)c1ccc(S(=O)(=O)n2c(Cc3ccc(C(=O)O)c(F)c3)cc3cc(C(F)(F)F)ccc32)cc1 | 197 °C
Cc1ccc(C(=O)NC(NC(=S)Nc2ccc(Cl)nc2)C(F)(F)F)cc1 (stereo not given) | 199 to 200 °C
Cc1nccn1CCCNC(=O)c1ccc(Cl)nc1 | 175 to 177 °C
O=C(O)c1cc([N+](=O)[O-])cc2ccccc12 | 255 to 257 °C
Cc1cc(-c2cccc(Cl)c2)nn2cnnc12 | 173 to 176 °C
Cn1c(C(O)CO)cnc1[N+](=O)[O-] (stereo not given) | 119 to 121 °C
O=C=Nc1c(Cl)cc(Cl)cc1Cl | 65 to 66 °C
Nc1c(O)c(Br)cc(Br)c1C(=O)O | 162 to 164 °C
COc1ccccc1N1CCN(C(=O)[C@H](N)Cc2cccnc2)CC1 | > 240 °C
Cc1cc(Nc2cc(C(C)(C)C)c(O)c(C(C)(C)C)c2)n2nccc2n1 | 251 to 253 °C
CCc1c(CCNC(=O)CCC(C)CC(=O)NCCc2ccc(OC)c(OC)c2CC)ccc(OC)c1OC (stereo not given) | 152 to 153 °C
NS(=O)(=O)c1ccc(-c2oc3cc(F)ccc3c(=O)c2-c2ccccc2F)cc1 | 188 °C
CCCCCS(=O)(=O)NC(=O)/C=C/c1ccc(OCCOC(C)=O)cc1Oc1ncc(C(F)(F)F)cc1Cl | 141 to 144 °C
COC(=O)C1=C(C)Nc2ccccc2N(C(C)=O)C1c1cccc([N+](=O)[O-])c1 (stereo not given) | 231 to 232 °C
C[C@@H](n1ccn(-c2ccc(OCC(F)(F)C(F)F)cc2)c1=O)[C@](O)(CO)c1ccccc1F | 166 to 167 °C
CN(SC(Cl)(Cl)Cl)C(=O)OC(C(Oc1ccc(Cl)cc1)n1cncn1)C(C)(C)C (stereo not given) | 110 to 112 °C

SMILES | melting point
CCOC(=O)CC(NC(=O)C1=C(C(=O)Nc2ccc(Cl)cc2F)CCCC1)C(=O)OCC (stereo not given) | 109 to 110 °C
CC(C)C[C@H](NCc1ccc(OC(C)(C)C)cc1)C(=O)N1CCN(C(c2ccc(F)cc2)c2ccc(F)cc2)CC1 | 56 to 61 °C
CCOC(=O)C=Cc1ccc2c(c1)c(-c1cc3cccnc3n1S(=O)(=O)c1ccc(C)cc1)cn2C | 159 to 162 °C
CC(C)CC1(C(CCSc2cccs2)C(=O)NO)CCN(CCc2ccccc2)C1=O (stereo not given) | 109 to 110 °C
CCc1ccccc1-c1nc(-c2cccc(OC)c2)n[nH]1 | 72 to 75 °C
CSCC[C@H](NC(=O)C1(CS)Cc2ccccc2C1)C(=O)O | 68 to 69 °C
C=CC1=C(C)c2cc3[nH]c(cc4nc(cc5[nH]c(cc1n2)c(C)c5CCC(=O)OCCN(C)C)C(CCC(=O)OCCN(C)C)=C4C)c(C)c3C=C | 187 to 191 °C
Nc1ncc(-c2ccc([N+](=O)[O-])c(Cl)c2Cl)c(N)n1 | 237 to 239 °C
CC1CCC(=NN)c2ncc(C(=O)O)c(=O)n21 (stereo not given) | 202 to 203 °C
CC(=O)OC1CSC(Oc2cccc(-c3ccc(C)cn3)c2)C(OC(C)=O)C1OC(C)=O (stereo not given) | 140 °C
CN1C(=O)NC(=O)C1=Cc1cc(Br)c(O)c(Br)c1 | 271 to 277 °C
CC(=O)NC[C@H]1CN(c2ccc3c(c2)CCC(C)N3C(=O)OCc2ccccc2)C(=O)O1 (stereo not given in full) | 126 to 129 °C
CC1(C)CCC(C)(C)c2cc(O)ccc21 | 142 °C
CS(=O)(=O)c1ccc(-n2cc(CO)nc2-c2ccc(Cl)cc2)cc1 | 205 to 208 °C
Cc1nc2scc(C)n2c(=O)c1CCN1CCC(C(=O)c2ccc(F)cc2)CC1 | 200 °C
O=C(CC1CCN(CCc2ccccc2)CC1)c1ccc(F)cc1 | 73 to 74 °C
CC(C)c1cc(-c2c3ccccc3c(Br)c3sc4ccccc4c23)cc(C(C)C)c1O[C@H](C)C(=O)O | 214 to 215 °C
CC(C)c1cc(-c2c3ccccc3c(Br)c3sc4ccccc4c23)cc(C(C)C)c1OCC(=O)O | 220 to 221 °C
CC(=NO)c1cccc(NC(=O)NC2N=C(c3ccccc3F)c3cccc(C)c3N(CC(=O)N3CC4CCC(CC4)C3)C2=O)c1 (stereo not given) | 199 to 208 °C
CC(C)(C)OC(=O)N=C(NC(=O)OC(C)(C)C)Nc1ccc2c(c1)Cc1cc(NC(=NC(=O)OC(C)(C)C)NC(=O)OC(C)(C)C)ccc1-2 | > 340 °C
Oc1ccccc1Cc1ccc(Cl)nn1 | 132 °C
Cc1ccc(F)cc1-n1c(CF)nc2ccc(N)cc2c1=O | 174 to 176 °C

SMILES | melting point
O=C1C(=Cc2ccc(Br)cc2)CCc2cc(OCCn3ccnc3)ccc21 | 152 to 153 °C
CCOCc1nc2c(N)nc3cc(OCCCCCCNC(=O)CCS)ccc3c2n1CC(C)(C)NS(C)(=O)=O | 152 to 157 °C
CCCc1nc2c(N)nc3cc(OCCCNS(=O)(=O)CCc4cccc5ccccc45)ccc3c2n1CC(C)C | 164 to 168 °C
CCN1C(=O)CC(=O)N(c2ccccc2)c2cc(Cl)ccc21 | 220 to 222 °C
Clc1cc(Cl)nc(-n2cnc3ccccc32)n1 | 173 to 175 °C
O=C(NCCO)c1cccc(-c2cccc3c2CC(Cc2cccc(C(F)(F)F)c2)O3)c1 (stereo not given) | 120 to 121 °C
CN1CCN(c2cccc3c2C[C@H](NC(=O)c2ccc(-c4ccccc4)cc2)CC3)CC1 | 232 to 233 °C
COc1ccc(-c2nc(C(=O)OC(C)(C)C)c(-c3ccncc3)[nH]2)cc1 | 211 to 212 °C
O=C(O)CCc1[nH]nc2c1CCCCC2 | 102 to 105 °C
CCc1cc2[nH]c(=O)c(=O)[nH]c2cc1Cl | > 315 °C
C=C(Cl)Cc1cc2c(C)cc(=O)oc2c(C)c1O | 135 to 163 °C
COc1ccc2cccc(CCOS(=O)(=O)c3ccccc3)c2c1 | 61.8 to 63 °C
COC(=O)c1c(C)[nH]c(-c2ncccn2)c1C(=O)OC | 140 to 146 °C
O=C(O)Cn1c(=O)c(=O)[nH]c2cc(Br)ccc21 | > 320 °C
O=C(O)c1cc(Cl)nn2nnnc12 | 225 °C
C[C@@H]1C(=O)C[C@H]2C[C@@H]1OO[C@@]2(C)/C=C\c1ccc(Cl)cc1 | 90 °C
N#Cc1ccc(CNC(=O)c2ccc(C=O)cc2)cc1 | 170 °C
Cn1nc(-c2cc(Oc3ccccc3)c(C#N)cc2F)c(Cl)c1C(F)(F)F | 123 °C
COc1cc(/C=C/c2ccc(C(C)C)cc2)cc(OC)c1OC | 74 to 75 °C
Cc1cc(-c2ccc3nnn(Cc4ccc5ncccc5c4)c3n2)ccc1C(N)=O | 235 to 237 °C
